Assays:
[1] = system: IL-8 release from Caco-2 monolayers; test: Release of IL-8 from polarised Caco-2 monolayers stimulated with LPS, TNF-α, IFN-β; assay type: cell-based, human; conditions: for % increase in anti-inflammatory activity compared to equivalent formulation without bromelain (difference of means): plus 80 ug/ml bromelain
Description: Inflammatory model of Caco-2 polarised monolayer stimulated with inflammatory mediators LPS, TNF-α, IFN-β: Polarised Caco-2 models were generated as previously described. When cell cultures reached a baseline TER of >1000/cm^2, the monolayers were stimulated by addition of 0.6 ml containing 50 ng/ml IFN-β, 10 μg/ml LPS and 5 ng/ml TNFα to the basolateral compartment. Immediately after the addition of the stimulation cocktail 0.25 ml of GaRP±0-80 μg/ml bromelain was applied to the apical compartment. After the 24 h incubation culture supernatants from the apical side were collected for quantitation of IL-8.
The human colorectal adenocarcinoma cell-line C2BBe1 was grown and maintained in Dulbecco's modified Eagle's medium (DMEM) supplemented with 10% v/v fetal bovine serum (FBS), 4 mM L-glutamine, 100 U/ml penicillin and […] streptomycin. All experiments were conducted on C2BBe1 cells within 12 passages after thawing.
In an experiment to evaluate the anti-inflammatory effect of bromelain or various GaRP formulations, 0.25 ml of test samples was applied to the apical side for 24 h, at the same time 0.6 ml of a cocktail containing 50 ng/ml IFN+10 ug/ml LPS+5 ng/ml TNF was added to the basolateral side in this model. After the 24 h incubation culture supernatants from the apical side were collected and IL-8 quantitated by ELISA.

[2] = system: Bacteria (AIEC obtained from IBD and IBS patients); conditions: menthol was not tested in vitro; published literature; cited from earlier work
Enterocyte [3] = conditions: menthol was not tested in vitro; published literature; cited from earlier work
Macrophage [4] = conditions: menthol was not tested in vitro; published literature; cited from earlier work
MUC12 = test: qPCR of MUC gene expression in Caco-2:HT-29-MTX 75:25 coculture; assay type: cell-based, human; conditions: 24 h
Description: (§1) Caco-2:HT-29-MTX 75:25 coculture: This co-culture model was used to simulate the human colonic epithelium (Hilgendorh C, 2000). The Caco-2 cells (passage 8) and the HT29-MTX cells (passage 9) were combined at a 75:25 ratio in DMEM with 10% FBS. The combined cells (6.4×10^4 cells/ml) were seeded into 25 cm^2 in a total of 5 ml per flask. The coculture was incubated at 37° C. in a 5% CO2 atmosphere with medium refreshed every 48 h. At 15 days post seeding, the coculture monolayer was washed three times in DMEM and replaced with 5 ml of pre-warmed test solution, and then incubated for 24 h.
(§2) Before RNA extraction, cells were collected by centrifugation at 5,000 g for 5 min, 4° C. the cell pellet was washed three times in ice-cold PBS followed by resuspension in 500 μl of ice-cold PBS. The total RNA of 2×10^6 cells per sample was extracted using a PureLink RNA mini kit with 1.5 μg of RNA (with A260/A280 ratio between 2.00 and 2.20) reverse-transcribed into cDNA using a High Capacity cDNA RT kit. The expression of the genes of interest was quantified using the PowerUp SYBR green Master mix. In brief, triplicate qPCR reactions was set up using 20 ng cDNA and 500 nM primers in a MicroAmp optical 384-well reaction plates using a Biomek-4000 automated liquid handler (Beckman Coulter, Brea, CA, USA). Amplification was run in a ViiA7 Real-Time PCR system (Thermo Fisher Scientific) at the following conditions: 95° C. for 20 seconds followed by 40 cycles of 95° C. for 1 second and 60° C. for 20 seconds; and a melt curve stage: 95° C., 15 s; 60° C., 60 s. The results of qPCR were analysed with the 2-ΔΔCT method as previously described using the QuantStudio Software V1.3 (Applied Biosystems). Relative gene expression values were normalized by using GAPDH and 18S as the multiple endogenous reference genes.
(§3) A 75:25 caco-2/HT-29 co-culture was established as previously described herein and the effect of a 24 h exposure to bromelain, threonine, sodium butyrate, vitamin D3 and the two different GaRP formulations on the expression of the following MUC genes was investigated using qPCR. At the end of the 24 h treatment, the supernatant in the 25 cm^2 flasks was collected and the coculture monolayer was trypsinised as previously described herein.
(§4) This co-culture model was used to simulate the human colonic epithelium. The Caco-2 cells (passage 8) and the HT29-MTX cells (passage 9) were combined at a 75:25 ratio in DMEM with 10% FBS. The combined cells (6.4×10^4 cells/ml) were seeded into 25 cm^2 in a total of 5 ml per flask. The coculture was incubated at 37° C. in a 5% CO2 atmosphere with medium refreshed every 48 h. At 15 days post seeding, the coculture monolayer was washed three times in DMEM and replaced with 5 ml of pre-warmed test solution, and then incubated for 24 h.
(§5) The test solutions of cholecalciferol (VD3) and L-Threonine (L-Thr) (Sigma-Aldrich) in culture medium were prepared one day before the treatment. At 15 days post seeding, the coculture monolayer was washed three times at hourly interval with culture medium, which was then replaced with 5 ml of pre-warmed test solution, and then incubated for 24 h.
(§6) At the end of the 24 h treatment, the supernatant in the 25 cm^2 flasks was collected and the coculture monolayer was trypsinised as previously described. Cells were collected by centrifugation at 5,000 g for 5 min, 4° C. After washed three times with ice-cold PBS, the cells were resuspended in 500 μl of ice-cold PBS. The total RNA of 2×10^6 cells per sample was extracted using the PureLink RNA mini kit (Invitrogen). For real-time PCR analysis, 1.5 μg of RNA (with A260/A280 ratio between 2.00 and 2.20) was reverse transcribed into cDNA using the High Capacity cDNA RT kit (Applied Biosystems, Foster City, CA, USA).
(§7) The expression of the human MUC2 and MUC7 genes in the Caco-2:HT-29-MTX 75:25 coculture was quantified using the PowerUp SYBR green Master mix (Applied Biosystems). […]

MUC13 = test: as above; assay type: cell-based, human; conditions: 24 h
Description: as §1, §2, §3, §4, §5, §6, §7

MUC15 = test: as above; assay type: cell-based, human; conditions: 24 h
Description: as §1, §2, §3, §4, §5, §6, §7

MUC16 = test: as above; assay type: cell-based, human; conditions: 24 h
Description: as §1, §2, §3, §4, §5, §6, §7

MUC17 = test: as above; assay type: cell-based, human; conditions: 24 h
Description: as §1, §2, §3, §4, §5, §6, §7

MUC19 = test: as above; assay type: cell-based, human; conditions: 24 h
Description: as §1, §2, §3, §4, §5, §6, §7

MUC1 = test: as above; assay type: cell-based, human; conditions: 24 h
Description: as §1, §2, §3, §4, §5, §6, §7

MUC20 = test: as above; assay type: cell-based, human; conditions: 24 h
Description: as §1, §2, §3, §4, §5, §6, §7

MUC2 = test: as above; assay type: cell-based, human; conditions: 24 h
Description: as §1, §2, §3, §4, §5, §6, §7

MUC3 = test: as above; assay type: cell-based, human; conditions: 24 h
Description: as §1, §2, §3, §4, §5, §6, §7

MUC4 = test: as above; assay type: cell-based, human; conditions: 24 h
Description: as §1, §2, §3, §4, §5, §6, §7

MUC5AC = test: as above; assay type: cell-based, human; conditions: 24 h
Description: as §1, §2, §3, §4, §5, §6, §7

MUC5B = test: as above; assay type: cell-based, human; conditions: 24 h
Description: as §1, §2, §3, §4, §5, §6, §7

MUC6 = test: as above; assay type: cell-based, human; conditions: 24 h
Description: as §1, §2, §3, §4, §5, §6, §7

MUC7 = test: as above; assay type: cell-based, human; conditions: 24 h
Description: as §1, §2, §3, §4, §5, §6, §7

MUC8 = test: as above; assay type: cell-based, human; conditions: 24 h
Description: as §1, §2, §3, §4, §5, §6, §7

[5] = system: Bacteria (AIEC obtained from IBD and IBS patients); test: Observed therapeutic effective dose determined in the in vitro experiments (Table 4); assay type: cell-based, E. coli; conditions: Not relevant = no anti-attachment or anti-invasive effect on the AIEC
Description: (§8) The observed therapeutic effective dose was determined in the in vitro experiments described herein.
(§9) Table 4 summarises the observed therapeutic effective dose for each GaRP formulation component.

Enterocyte [6] = test: as above; assay type: cell-based, human
Description: as §8, §9

Macrophage [7] = test: as above; assay type: cell-based, human
Description: as §8, §9

[8] = formulation or component plus 80 ug/ml bromelain, 24 h
[9] = without bromelain, test sample apical 24 h, IFN+LPS+TNF cocktail basolateral

N[C@@H](Cc1c[nH]c2ccccc12)C(=O)O [L-tryptophan]
% inhibition of the release of IL-8 Median ± SEM [1, 8]: 76 ± 2% | % increase in anti-inflammatory activity compared to equivalent formulation without bromelain (difference of means) [1]: 62% | % inhibition of the release of IL-8 Median ± SEM [1, 9]: 14 ± 7%

CC1CCC(C(C)C)C(O)C1 (stereo not drawn) [Menthol]
therapeutic effective dose, Target cell Bacteria (fg/cell) [2]: Not relevant | therapeutic effective dose, Target cell Enterocyte (pg/cell) (Enterocyte [3]): 20 pg/cell | therapeutic effective dose, Target cell Macrophage (pg/cell) (Macrophage [4]): 20 pg/cell

C=C1CC[C@H](O)C/C1=C/C=C1\CCC[C@]2(C)[C@@H]([C@H](C)CCCC(C)C)CC[C@@H]12 [Vitamin D3, Cholecalciferol]
Effect on MUC gene expression, MUC12 (MUC12; 0.048 μg/ml vitamin D3): No effect | Effect on MUC gene expression, MUC12 (MUC12; 0.48 μg/ml vitamin D3): No effect | Effect on MUC gene expression, MUC13: Decreased by (MUC13; 0.048 μg/ml vitamin D3): by 37% | Effect on MUC gene expression, MUC13: Decreased by (MUC13; 0.48 μg/ml vitamin D3): by 56% | Effect on MUC gene expression, MUC15 (MUC15; 0.048 μg/ml vitamin D3): No effect | Effect on MUC gene expression, MUC15 (MUC15; 0.48 μg/ml vitamin D3): No effect | Effect on MUC gene expression, MUC16 (MUC16; 0.048 μg/ml vitamin D3): No effect | Effect on MUC gene expression, MUC16 (MUC16; 0.48 μg/ml vitamin D3): No effect | Effect on MUC gene expression, MUC17: Decreased by (MUC17; 0.048 μg/ml vitamin D3): by 31% | Effect on MUC gene expression, MUC17: Decreased by (MUC17; 0.48 μg/ml vitamin D3): by 40% | Effect on MUC gene expression, MUC19 (MUC19; 0.048 μg/ml vitamin D3): No effect | Effect on MUC gene expression, MUC19 (MUC19; 0.48 μg/ml vitamin D3): No effect | Effect on MUC gene expression, MUC1: Decreased by (MUC1; 0.048 μg/ml vitamin D3): by 37% | Effect on MUC gene expression, MUC1: Decreased by (MUC1; 0.48 μg/ml vitamin D3): by 58% | Effect on MUC gene expression, MUC20: Decreased by (MUC20; 0.048 μg/ml vitamin D3): by 18% | Effect on MUC gene expression, MUC20: Decreased by (MUC20; 0.48 μg/ml vitamin D3): by 27% | Effect on MUC gene expression, MUC2 (MUC2; 0.048 μg/ml vitamin D3): No effect | Effect on MUC gene expression, MUC2 (MUC2; 0.48 μg/ml vitamin D3): No effect | effect on the expression of MUC2, individually (MUC2; titration, FIGS. 9A & 9B): did not exert a major effect | Effect on MUC gene expression, MUC3: Decreased by (MUC3; 0.048 μg/ml vitamin D3): by 43% | Effect on MUC gene expression, MUC3 (MUC3; 0.48 μg/ml vitamin D3): No effect | Effect on MUC gene expression, MUC4 (MUC4; 0.048 μg/ml vitamin D3): No effect | Effect on MUC gene expression, MUC4 (MUC4; 0.48 μg/ml vitamin D3): No effect | Effect on MUC gene expression, MUC5AC: Decreased by (MUC5AC; 0.048 μg/ml vitamin D3): by 42% | Effect on MUC gene expression, MUC5AC: Decreased by (MUC5AC; 0.48 μg/ml vitamin D3): by 42% | Effect on MUC gene expression, MUC5B: Decreased by (MUC5B; 0.048 μg/ml vitamin D3): by 56% | Effect on MUC gene expression, MUC5B: Decreased by (MUC5B; 0.48 μg/ml vitamin D3): by 63% | Effect on MUC gene expression, MUC6 (MUC6; 0.048 μg/ml vitamin D3): No effect | Effect on MUC gene expression, MUC6 (MUC6; 0.48 μg/ml vitamin D3): No effect | Effect on MUC gene expression, MUC7 (MUC7; 0.048 μg/ml vitamin D3): No effect | Effect on MUC gene expression, MUC7 (MUC7; 0.48 μg/ml vitamin D3): No effect | effect on the expression of MUC7, individually (MUC7; titration, FIGS. 9A & 9B): did not exert a major effect | Effect on MUC gene expression, MUC8: Decreased by (MUC8; 0.048 μg/ml vitamin D3): by 30% | Effect on MUC gene expression, MUC8: Decreased by (MUC8; 0.48 μg/ml vitamin D3): by 50% | observed therapeutic effective dose, Target cell Bacteria (fg/cell) [5]: Not relevant | observed therapeutic effective dose, Target cell Enterocyte (pg/cell) (Enterocyte [6]): 0.018 pg/cell | observed therapeutic effective dose, Target cell Macrophage (pg/cell) (Macrophage [7]): 0.36 pg/cell

CCCC(=O)O [sodium butyrate]
% inhibition of the release of IL-8 Median ± SEM [1, 8]: 71 ± 7% | % increase in anti-inflammatory activity compared to equivalent formulation without bromelain (difference of means) [1]: 60% | % inhibition of the release of IL-8 Median ± SEM [1, 9]: 11 ± 15% | observed therapeutic effective dose, Target cell Enterocyte (pg/cell) (Enterocyte [6]): 15 pg/cell | observed therapeutic effective dose, Target cell Macrophage (pg/cell) (Macrophage [7]): 300 pg/cell
